# Measured values reported in patent US10065927B2, “α-ketoacylic isoniazid compounds, process for producing said compounds, use of the compounds in the treatment of tuberculosis” (priority 2015, dated 2018).
# Entries after “also recorded” stand apart in the source; their conditions may differ. Like-named read-outs stand apart in the source and are kept apart here.
# Tests used:
# [1] = tested on: Mycobacterium tuberculosis strain H37Rv ATCC 27294; assay: Antimycobacterial evaluation, MIC by microplate Alamar Blue Assay, retested by BACTEC MGIT 960-TB; type: cell-based; details: for MIC: M. tuberculosis strain H37Rv ATCC 27294, sensitive to first-choice drugs; for antimycobacterial activity (in words): against M. tuberculosis
# [2] = tested on: J77-4 lineage murine macrophages; type: cell-based; details: mouse
# Procedure: The cytotoxicity evaluation of compound 2 was performed with J77-4 lineage murine macrophages.
# [3] = Mycobacterium tuberculosis, read-out: MIC
# [4] = strains sensitive to first-choice drugs
structure (smiles),measurement,setting,value
NNC(=O)c1ccncc1 [Isoniazid],MIC,[1]; [3],0.73 µM
"O=C(NNC(=O)c1ccncc1)C(=O)c1ccccc1NC(=O)c1ccccc1 [Compound 4, reference compound]",MIC,[1]; read-out: MIC,8.04 µM
same,antimycobacterial activity (in words),[1],did not show good activity
"CC[C@@H](CO)NCCN[C@@H](CC)CO [Etambutol, ethambutol, reference compound]",MIC,[1]; [3],15.9 µM
"CC(=O)NNC(=O)c1ccncc1 [2-acetylisomide, 2-acetylisoniazide, reference compound]",MIC,[1],Inactive
same,antimycobacterial activity (in words),[1],did not show antimycobacterial activity
"CC(=O)Nc1ccccc1C(=O)C(=O)NNC(=O)c1ccncc1 [Compound 2, N-(2-(2-(2-Isonicotinoylhydrazine)-2-Oxoacetyl)Phenyl) Acetamide]",MIC,[1]; [3],0.37 µM
same,antimycobacterial activity (in words),[1],antimycobacterial activity superior to all the first-choice drugs; also recorded: higher potency than all the first-choice drugs
same,activity relative to pyrazinamide,[1]; [4],almost two thousand and two hundred times more active than pyrazinamide
same,potency relative to ethambutol,[1]; [4],more than forty times more potent than ethambutol
same,potency relative to isoniazid,[1]; [4],twice as potent as isoniazid
same,potency relative to rifampicin,[1]; [4],more than three times more potent than rifampicin
same,Cell Viability (%),[2]; 1 nM,96.8%
same,Cell Viability (%),[2]; 10 nM,97.8%
same,Cell Viability (%),[2]; 100 nM,97.9%
same,Cell Viability (%),[2]; 1,97.4%
same,Cell Viability (%),[2]; 10,97.3%
same,Cell Viability (%),[2]; 100,98.2%
"NC(=O)c1cnccn1 [Pyrazinamide, reference compound]",MIC,[1]; [3],813 µM
